The values that follow come from patent publication US20260295053A1, “COMPOUNDS FOR DEGRADATION AND INHIBITION OF KRAS (G12D) PROTEIN” (Shenzhen Ionova Life Science Co., Ltd., priority 2023, published 2026).

The target of one experiment is T1, KRAS (G12D) (Homo sapiens, UniProt P01116, G12D).
T1 construct: in-cell western with KRAS G12D antibody after 24 h
The experiment in a line: KRAS (G12D) cellular degradation assay in AsPC-1 cells. Conditions: 24 hours, antibody fluorescence (Odyssey CLX), DC50 half-maximal degradation concentration. The experiment is classed as cell-based. Put shortly: (§1)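 AsPC-1 cells were seeded at 22,000/well for degradation and 3,500/well for proliferation. Compounds in 1:3 dilutions ([…] to 1.5 nM final) ran 24 h for degradation, read by in-cell immunofluorescence of KRAS G12D normalised to β-actin, and 6 days for proliferation (CellTiter Glo luminescence). DC50/IC50 came from dose-response fits.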

A further experiment concerns AsPC-1 cells. Put plainly: AsPC-1 cell proliferation assay (CellTiter Glo). The experiment is classed as cell-based. The conditions noted are these: Homo sapiens, ASPC1, 144 h, 6 days. Put shortly:
as §1
On the technique in general: Cellular ATP, detected with luciferase, serves as a proxy for viable cell number.

Each structure is given as a SMILES string.

Usually DC50 stands for the concentration at which degradation of the target reaches its halfway point. Broadly, the IC50 is the midpoint of a concentration-inhibition curve. A higher IC50 goes with weaker potency in that assay.

T1 sequence (P01116 1-188 isoform P01116-2 G12D): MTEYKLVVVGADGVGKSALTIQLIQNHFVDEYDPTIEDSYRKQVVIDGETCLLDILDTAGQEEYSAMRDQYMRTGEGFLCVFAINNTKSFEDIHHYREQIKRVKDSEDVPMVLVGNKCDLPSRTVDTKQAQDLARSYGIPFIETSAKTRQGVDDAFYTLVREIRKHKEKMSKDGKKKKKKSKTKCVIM

With `Cc1ncsc1-c1ccc([C@H](CO)NC(=O)[C@@H]2C[C@@H](O)CN2C(=O)[C@H](C(C)C)n2cc(-c3ccc(COc4c(-c5c(C)c(F)cc6[nH]ncc56)c(C5CC5)cc5c(N6C[C@@H]7C[C@H]6CN7)nc(OC6CCC7(CC6)COC7)nc45)cc3)nn2)cc1` [Example 63, (2S,4R)-1-((2S)-2-(4-(4-(((2-((2-oxaspiro[3.5]nonan-7-yl)oxy)-4-((1S,4S)-2,5-diazabicyclo[2.2.1]heptan-2-yl)-6-cyclopropyl-7-(6-fluoro-5-methyl-1H-indazol-4-yl)quinazolin-8-yl)oxy)methyl)phenyl)-1H-1,2,3-triazol-1-yl)-3-methylbutanoyl)-4-hydroxy-N—((R)-2-hydroxy-1-(4-(4-methylthiazol-5-yl)phenyl)ethyl)pyrrolidine-2-carboxamide], the DC50 at KRAS (G12D) was below 10 nM. Besides, the IC50 in the experiment on AsPC-1 cells was below 10 nM.
On to `CO[C@@H](C)COc1nc(N2C[C@@H]3C[C@H]2CN3)c2cc(C3CC3)c(-c3c(C)c(F)cc4[nH]ncc34)c(OCc3ccc(-c4cn([C@H](C(=O)N5C[C@H](O)C[C@H]5C(=O)N[C@H](C#Cc5ccccc5Cl)CO)C(C)C)nn4)cc3)c2n1` [Example 64, (2S,4R)-1-((2S)-2-(4-(4-(((4-((1S,4S)-2,5-diazabicyclo[2.2.1]heptan-2-yl)-6-cyclopropyl-7-(6-fluoro-5-methyl-1H-indazol-4-yl)-2-((S)-2-methoxypropoxy)quinazolin-8-yl)oxy)methyl)phenyl)-1H-1,2,3-triazol-1-yl)-3-methylbutanoyl)-N—((R)-4-(2-chlorophenyl)-1-hydroxybut-3-yn-2-yl)-4-hydroxypyrrolidine-2-carboxamide], for which the DC50 at KRAS (G12D) fell in the range of 10 to 100 nM. In the experiment on AsPC-1 cells, this molecule came in with a half-inhibitory concentration (IC50) of 10 to 100 nM.
At KRAS (G12D), `CCn1nccc1-c1ccc([C@H](CO)NC(=O)[C@@H]2C[C@@H](O)CN2C(=O)[C@H](C(C)C)n2cc(-c3ccc(COc4c(-c5c(C)c(F)cc6[nH]ncc56)c(C5CC5)cc5c(N6C[C@@H]7C[C@H]6CN7)nc(OCC6(C(F)F)CCOCC6)nc45)cc3)nn2)cc1` [Example 65, (2S,4R)-1-((2S)-2-(4-(4-(((4-((1S,4S)-2,5-diazabicyclo[2.2.1]heptan-2-yl)-6-cyclopropyl-2-((4-(difluoromethyl)tetrahydro-2H-pyran-4-yl)methoxy)-7-(6-fluoro-5-methyl-1H-indazol-4-yl)quinazolin-8-yl)oxy)methyl)phenyl)-1H-1,2,3-triazol-1-yl)-3-methylbutanoyl)-N—((R)-1-(4-(1-ethyl-1H-pyrazol-5-yl)phenyl)-2-hydroxyethyl)-4-hydroxypyrrolidine-2-carboxamide] showed a 50% degradation concentration (DC50) below 10 nM. For the same molecule, the IC50 with AsPC-1 cells was below 10 nM.
In the case of `CCn1nccc1-c1ccc([C@H](CO)NC(=O)[C@@H]2C[C@@H](O)CN2C(=O)[C@H](C(C)C)n2cc(-c3ccc(COc4c(-c5c(C)c(F)c(C)c6[nH]ncc56)c(C5CC5)cc5c(N6C[C@@H]7C[C@H]6CN7)nc(OC[C@H](C)OC)nc45)cc3)nn2)cc1` [Example 66, (2S,4R)-1-((2S)-2-(4-(4-(((4-((1S,4S)-2,5-diazabicyclo[2.2.1]heptan-2-yl)-6-cyclopropyl-7-(6-fluoro-5,7-dimethyl-1H-indazol-4-yl)-2-((S)-2-methoxypropoxy)quinazolin-8-yl)oxy)methyl)phenyl)-1H-1,2,3-triazol-1-yl)-3-methylbutanoyl)-N—((R)-1-(4-(1-ethyl-1H-pyrazol-5-yl)phenyl)-2-hydroxyethyl)-4-hydroxypyrrolidine-2-carboxamide], the DC50 at KRAS (G12D) was below 10 nM. In the experiment with AsPC-1 cells, the IC50 is below 10 nM.
In the case of `CO[C@@H](C)COc1nc(N2C[C@@H]3C[C@H]2CN3)c2cc(C3CC3)c(-c3c(C)c(F)cc4[nH]ncc34)c(OCc3ccc(-c4cn([C@H](C(=O)N5C[C@H](O)C[C@H]5C(=O)N[C@H](C#Cc5cc6scnc6s5)CO)C(C)C)nn4)cc3)c2n1` [Example 67, (2S,4R)-1-((2S)-2-(4-(4-(((4-((1S,4S)-2,5-diazabicyclo[2.2.1]heptan-2-yl)-6-cyclopropyl-7-(6-fluoro-5-methyl-1H-indazol-4-yl)-2-((S)-2-methoxypropoxy)quinazolin-8-yl)oxy)methyl)phenyl)-1H-1,2,3-triazol-1-yl)-3-methylbutanoyl)-4-hydroxy-N—((R)-1-hydroxy-4-(thieno[2,3-d]thiazol-5-yl)but-3-yn-2-yl)pyrrolidine-2-carboxamide], on KRAS (G12D), the DC50 was 10 to 100 nM. This molecule also registered an IC50 in the experiment on AsPC-1 cells of 10 to 100 nM.
For `CCn1nccc1-c1ccc([C@H](CO)NC(=O)[C@@H]2C[C@@H](O)CN2C(=O)[C@H](C(C)C)n2cc(-c3ccc(COc4c(-c5c(C)c(F)cc6[nH]ncc56)c(C5CCC5)cc5c(N6C[C@@H]7C[C@H]6CN7)nc(OC[C@H](C)OC)nc45)cc3)nn2)cc1` [Example 68, (2S,4R)-1-((2S)-2-(4-(4-(((4-((1S,4S)-2,5-diazabicyclo[2.2.1]heptan-2-yl)-6-cyclobutyl-7-(6-fluoro-5-methyl-1H-indazol-4-yl)-2-((S)-2-methoxypropoxy)quinazolin-8-yl)oxy)methyl)phenyl)-1H-1,2,3-triazol-1-yl)-3-methylbutanoyl)-N—((R)-1-(4-(1-ethyl-1H-pyrazol-5-yl)phenyl)-2-hydroxyethyl)-4-hydroxypyrrolidine-2-carboxamide], the DC50 at KRAS (G12D) was below 10 nM. Besides, the IC50 in the experiment with AsPC-1 cells was below 10 nM.
Molecule `CCn1nccc1-c1ccc([C@H](CO)NC(=O)[C@@H]2C[C@@H](O)CN2C(=O)[C@H](C(C)C)n2cc(-c3ccc(COc4c(-c5c(C)c(F)cc6[nH]ncc56)c(C5CC5)cc5c(N6C[C@@H]7C[C@H]6CN7)nc(OC6CC7(COC7)C6)nc45)cc3)nn2)cc1` [Example 69, (2S,4R)-1-((2S)-2-(4-(4-(((2-((2-oxaspiro[3.3]heptan-6-yl)oxy)-4-((1S,4S)-2,5-diazabicyclo[2.2.1]heptan-2-yl)-6-cyclopropyl-7-(6-fluoro-5-methyl-1H-indazol-4-yl)quinazolin-8-yl)oxy)methyl)phenyl)-1H-1,2,3-triazol-1-yl)-3-methylbutanoyl)-N—((R)-1-(4-(1-ethyl-1H-pyrazol-5-yl)phenyl)-2-hydroxyethyl)-4-hydroxypyrrolidine-2-carboxamide] returned a DC50 at KRAS (G12D) below 10 nM. The molecule also yielded an IC50 in the experiment with AsPC-1 cells below 10 nM.
At KRAS (G12D), `CCn1nccc1-c1ccc([C@H](CO)NC(=O)[C@@H]2C[C@@H](O)CN2C(=O)[C@H](C(C)C)n2cc(-c3ccc(COc4c(-c5c(C)c(F)cc6[nH]ncc56)c(C5CC5)cc5c(N6C[C@@H]7C[C@H]6CN7)nc(OC6CCC(OC)CC6)nc45)cc3)nn2)cc1` (stereo partly drawn) [Example 70, (2S,4R)-1-((2S)-2-(4-(4-(((4-((1S,4S)-2,5-diazabicyclo[2.2.1]heptan-2-yl)-6-cyclopropyl-7-(6-fluoro-5-methyl-1H-indazol-4-yl)-2-((4-methoxycyclohexyl)oxy)quinazolin-8-yl)oxy)methyl)phenyl)-1H-1,2,3-triazol-1-yl)-3-methylbutanoyl)-N—((R)-1-(4-(1-ethyl-1H-pyrazol-5-yl)phenyl)-2-hydroxyethyl)-4-hydroxypyrrolidine-2-carboxamide] yielded a DC50 below 10 nM. In the experiment on AsPC-1 cells, this molecule came in with a concentration for half-maximal inhibition (IC50) below 10 nM.
Consider `CO[C@@H](C)COc1nc(N2C[C@@H]3C[C@H]2CN3)c2cc(C3CC3)c(-c3c(C)c(F)cc4[nH]ncc34)c(OCc3ccc(-c4cn([C@H](C(=O)N5C[C@H](O)C[C@H]5C(=O)N[C@H](C#Cc5nn(C)c6ccccc56)CO)C(C)C)nn4)cc3)c2n1` [Example 71, (2S,4R)-1-((2S)-2-(4-(4-(((4-((1S,4S)-2,5-diazabicyclo[2.2.1]heptan-2-yl)-6-cyclopropyl-7-(6-fluoro-5-methyl-1H-indazol-4-yl)-2-((S)-2-methoxypropoxy)quinazolin-8-yl)oxy)methyl)phenyl)-1H-1,2,3-triazol-1-yl)-3-methylbutanoyl)-4-hydroxy-N—((R)-1-hydroxy-4-(1-methyl-1H-indazol-3-yl)but-3-yn-2-yl)pyrrolidine-2-carboxamide], for which, at KRAS (G12D), the half-maximal degradation concentration (DC50) is below 10 nM. Also, in the experiment on AsPC-1 cells, the half-maximal inhibitory concentration (IC50) is below 10 nM.
`Cc1ncsc1-c1ccc([C@@H](NC(=O)[C@@H]2C[C@@H](O)CN2C(=O)[C@H](C(C)C)n2cc(-c3ccc(COc4c(-c5c(C)c(F)cc6[nH]ncc56)c(C5CC5)cc5c(N6C[C@@H]7C[C@H]6CN7)nc(OC6CCOCC6)nc45)cc3)nn2)[C@H](C)O)cc1` [Example 72, (2S,4R)-1-((2S)-2-(4-(4-(((4-((1S,4S)-2,5-diazabicyclo[2.2.1]heptan-2-yl)-6-cyclopropyl-7-(6-fluoro-5-methyl-1H-indazol-4-yl)-2-((tetrahydro-2H-pyran-4-yl)oxy)quinazolin-8-yl)oxy)methyl)phenyl)-1H-1,2,3-triazol-1-yl)-3-methylbutanoyl)-4-hydroxy-N-((1R,2S)-2-hydroxy-1-(4-(4-methylthiazol-5-yl)phenyl)propyl)pyrrolidine-2-carboxamide] displayed a DC50 at KRAS (G12D) below 10 nM. In the experiment on AsPC-1 cells, this molecule had a half-inhibitory concentration (IC50) below 10 nM.
`CCn1nccc1-c1ccc([C@@H](NC(=O)[C@@H]2C[C@@H](O)CN2C(=O)[C@H](C(C)C)n2cc(-c3ccc(COc4c(-c5c(C)c(F)cc6[nH]ncc56)c(C5CC5)cc5c(N6C[C@@H]7C[C@H]6CN7)nc(OC[C@H](C)OC)nc45)cc3)nn2)[C@@H](C)O)cc1` [Example 73, (2S,4R)-1-((2S)-2-(4-(4-(((4-((1S,4S)-2,5-diazabicyclo[2.2.1]heptan-2-yl)-6-cyclopropyl-7-(6-fluoro-5-methyl-1H-indazol-4-yl)-2-((S)-2-methoxypropoxy)quinazolin-8-yl)oxy)methyl)phenyl)-1H-1,2,3-triazol-1-yl)-3-methylbutanoyl)-N-((1R,2R)-1-(4-(1-ethyl-1H-pyrazol-5-yl)phenyl)-2-hydroxypropyl)-4-hydroxypyrrolidine-2-carboxamide]: the DC50 on KRAS (G12D) is below 10 nM. The molecule also had an IC50 in the experiment on AsPC-1 cells below 10 nM.
